The values that follow come from patent publication US8178689B2, “Tricyclic compounds” (Hoffman-La Roche Inc., priority 2010, dated 2012).

The target in this test is T1, Recombinant human liver GK1 (GST-GK) (Homo sapiens, UniProt P35557).
T1 construct: made in house; host or cells: E. coli
T1 sequence (P35557 1-466 isoform P35557-2): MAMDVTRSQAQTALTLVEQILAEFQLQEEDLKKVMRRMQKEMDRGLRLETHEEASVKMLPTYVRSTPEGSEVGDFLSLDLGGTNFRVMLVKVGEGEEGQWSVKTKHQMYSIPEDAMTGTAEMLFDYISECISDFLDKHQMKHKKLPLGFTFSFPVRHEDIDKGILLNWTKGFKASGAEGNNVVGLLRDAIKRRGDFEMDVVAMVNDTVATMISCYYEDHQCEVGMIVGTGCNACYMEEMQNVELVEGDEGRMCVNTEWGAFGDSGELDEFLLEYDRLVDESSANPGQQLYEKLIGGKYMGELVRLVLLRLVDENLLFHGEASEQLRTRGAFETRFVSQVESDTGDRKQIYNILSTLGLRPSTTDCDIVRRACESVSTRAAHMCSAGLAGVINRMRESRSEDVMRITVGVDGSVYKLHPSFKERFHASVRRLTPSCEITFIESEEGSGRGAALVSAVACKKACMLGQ
Put plainly: In vitro glucokinase activity (G6PDH-coupled NADH generation assay). Format: biochemical. More on the design: unit not given here. To be noted: concentration of activator that produced a 50% increase in the activity of GK; 5 mM D-glucose, 30° C., pH 7.1, 10% DMSO. The method, then:
Glucokinase In Vitro Assay Protocol: Glucokinase (GK) was assayed by coupling the production of glucose-6-phosphate to the generation of NADH with glucose-6-phosphate dehydrogenase (G6PDH, 0.75-1 kunits/mg; Boehringer Mannheim, Indianapolis, Ind.) from Leuconostoc mesenteroides as the coupling enzyme:
Recombinant human liver GK1 was expressed in E. coli as a glutathione S-transferase fusion protein (GST-GK) [Liang et al, 1995]and was purified by chromatography over a glutathione-Sepharose 4B affinity column using the procedure provided by the manufacturer (Amersham Pharmacia Biotech, Piscataway, N.J.).
The assay was conducted at 30° C. in a flat bottom 96-well tissue culture plate from Costar (Cambridge, Mass.) with a final incubation volume of 120 μL. The incubation reaction contained the following: 25 mM Hepes buffer (pH 7.1), 25 mM KCl, 5 mM D-glucose, 1 mM ATP, 1.8 mM NAD, 2 mM MgCl2, 1 μM sorbitol-6-phosphate, 1 mM dithiothreitol, test drug or 10% DMSO, ˜7 units/ml G6PDH, and GK (see below). All organic reagents were >98% pure and were from Boehringer Mannheim with the exceptions of D-glucose and Hepes which were from Sigma Chemical Co, St Louis, Mo. Test compounds were dissolved in DMSO and were added to the incubation reaction minus GST-GK in a volume of 12 μL to yield a final DMSO concentration of 10%. This mix was pre-incubated in the temperature controlled chamber of a SPECTRAmax 250 microplate spectrophotometer (Molecular Devices Corporation, Sunnyvale, Calif.) for 10 minutes to allow temperature equilibrium and then the reaction was started by the addition of 20 μL GST-GK.
After addition of enzyme, the increase in optical density (OD) at 340 nm was monitored spectrophotometrically to determine the rate of change (OD340 per min). The GK activity (OD340/min) in control wells (10% DMSO minus GK activators) was compared with the activity in wells containing test GK activators, and the concentration of activator that produced a 50% increase in the activity of GK, i.e., the SC1.5:0.1, was calculated. The table below provides the in vitro glucokinase activity for the compounds in the Examples: […]
For the molecule `COC(=O)c1ccc(NC(=O)[C@H](CC(C)C)N2CC3=C(Oc4cccc(Cl)c4C3)C2=O)nc1` [Example 6, 6-[(S)-2-(8-Chloro-3-oxo-3,9-dihydro-1H-chromeno[2,3-c]pyrrol-2-yl)-4-methyl-pentanoylamino]-nicotinic acid methyl ester], the “SC 1.5:0.1” value amounted to 3.324.

As to `COC(=O)c1ccc(NC(=O)[C@H](CC(C)C)N2CC3=C(Oc4c(Cl)cccc4C3)C2=O)nc1` [Example 22, 6-[(S)-2-(5-Chloro-3-oxo-3,9-dihydro-1H-chromeno[2,3-c]pyrrol-2-yl)-4-methyl-pentanoylamino]-nicotinic acid methyl ester], the “SC 1.5:0.1” value is reported as 9.858. For the molecule `CC(C)C[C@@H](C(=O)Nc1ccccn1)N1CC2=C(Oc3cccc(Cl)c3C2)C1=O` [Example 3, (S)-2-(8-Chloro-3-oxo-3,9-dihydro-1H-chromeno[2,3-c]pyrrol-2-yl)-4-methyl-pentanoic acid pyridin-2-ylamide], the “SC 1.5:0.1” value is listed as 4.602. Then `CC(C)C[C@@H](C(=O)Nc1nccs1)N1CC2=C(Oc3cccc(Cl)c3C2)C1=O` [Example 5, (S)-2-(8-Chloro-3-oxo-3,9-dihydro-1H-chromeno[2,3-c]pyrrol-2-yl)-4-methyl-pentanoic acid thiazol-2-ylamide], with 9.277. For `COC(=O)c1ccc(NC(=O)[C@H](CC(C)C)N2CC3=C(Oc4c(OC)ccc(OC)c4C3)C2=O)nc1` [Example 19, 6-[(S)-2-(5,8-Dimethoxy-3-oxo-3,9-dihydro-1H-chromeno[2,3-c]pyrrol-2-yl)-4-methyl-pentanoylamino]-nicotinic acid methyl ester] the value was 0.803. Turning to `O=C(Nc1ccccn1)[C@H](CC1CCCCC1)N1CC2=C(Oc3c(Cl)cccc3C2)C1=O` [Example 20, (S)-2-(5-Chloro-3-oxo-3,9-dihydro-1H-chromeno[2,3-c]pyrrol-2-yl)-3-cyclohexyl-N-pyridin-2-yl-propionamide], the “SC 1.5:0.1” value is given as 2.423. In the case of `COc1cccc2c1CC1=C(O2)C(=O)N([C@@H](CC2CCCCC2)C(=O)Nc2nccs2)C1` [Example 9, (S)-3-Cyclohexyl-2-(8-methoxy-3-oxo-3,9-dihydro-1H-chromeno[2,3-c]pyrrol-2-yl)-N-thiazol-2-yl-propionamide], the “SC 1.5:0.1” value is 0.746.

Take `COc1ccc(OC)c2c1CC1=C(O2)C(=O)N([C@@H](CC2CCCCC2)C(=O)Nc2nccs2)C1` [Example 16, (S)-3-Cyclohexyl-2-(5,8-dimethoxy-3-oxo-3,9-dihydro-1H-chromeno[2,3-c]pyrrol-2-yl)-N-thiazol-2-yl-propionamide]: the “SC 1.5:0.1” value was found to be 2.439.

With `COC(=O)c1ccc(NC(=O)[C@H](CC2CCCCC2)N2CC3=C(Oc4c(OC)ccc(OC)c4C3)C2=O)nc1` [Example 17, 6-[(S)-3-Cyclohexyl-2-(5,8-dimethoxy-3-oxo-3,9-dihydro-1H-chromeno[2,3-c]pyrrol-2-yl)-propionylamino]-nicotinic acid methyl ester], the “SC 1.5:0.1” value amounted to 0.219. Then `COc1ccc(OC)c2c1CC1=C(O2)C(=O)N([C@@H](CC2CCCCC2)C(=O)Nc2ccc(Cl)cn2)C1` [Example 15, (S)—N-(5-Chloro-pyridin-2-yl)-3-cyclohexyl-2-(5,8-dimethoxy-3-oxo-3,9-dihydro-1H-chromeno[2,3-c]pyrrol-2-yl)-propionamide], with 0.428; and `CC(C)C[C@@H](C(=O)Nc1ccc(Cl)cn1)N1CC2=C(Oc3cccc(Cl)c3C2)C1=O` [Example 4, (S)-2-(8-Chloro-3-oxo-3,9-dihydro-1H-chromeno[2,3-c]pyrrol-2-yl)-4-methyl-pentanoic acid (5-chloro-pyridin-2-yl)-amide], with 3.18. For `O=C(Nc1ccccn1)[C@H](CC1CCCCC1)N1CC2=C(Oc3cccc(Cl)c3C2)C1=O` [Example 1, (S)-2-(8-Chloro-3-oxo-3,9-dihydro-1H-chromeno[2,3-c]pyrrol-2-yl)-3-cyclohexyl-N-pyridin-2-yl-propionamide] the value was 1.311; for `O=C(Nc1nccs1)[C@H](CC1CCCCC1)N1CC2=C(Oc3c(Cl)cccc3C2)C1=O` [Example 21, (S)-2-(5-Chloro-3-oxo-3,9-dihydro-1H-chromeno[2,3-c]pyrrol-2-yl)-3-cyclohexyl-N-thiazol-2-yl-propionamide], 4.181. For `COc1ccc(OC)c2c1CC1=C(O2)C(=O)N([C@@H](CC(C)C)C(=O)Nc2ccccn2)C1` [Example 18, (S)-2-(5,8-Dimethoxy-3-oxo-3,9-dihydro-1H-chromeno[2,3-c]pyrrol-2-yl)-4-methyl-pentanoic acid pyridin-2-ylamide] the value was 2.532; for `COc1ccc(OC)c2c1CC1=C(O2)C(=O)N([C@@H](CC(C)C)C(=O)Nc2ccc(Cl)cn2)C1` [Example 14, (S)-2-(5,8-Dimethoxy-3-oxo-3,9-dihydro-1H-chromeno[2,3-c]pyrrol-2-yl)-4-methyl-pentanoic acid (5-chloro-pyridin-2-yl)-amide], 0.911; for `COC(=O)c1ccc(NC(=O)[C@H](CC2CCCCC2)N2CC3=C(Oc4cccc(OC)c4C3)C2=O)nc1` [Example 10, 6-[(S)-3-Cyclohexyl-2-(8-methoxy-3-oxo-3,9-dihydro-1H-chromeno[2,3-c]pyrrol-2-yl)-propionylamino]-nicotinic acid methyl ester], 0.302. For the molecule `COc1cccc2c1CC1=C(O2)C(=O)N([C@@H](CC2CCCCC2)C(=O)Nc2ccccn2)C1` [Example 7, (S)-3-Cyclohexyl-2-(8-methoxy-3-oxo-3,9-dihydro-1H-chromeno[2,3-c]pyrrol-2-yl)-N-pyridin-2-yl-propionamide], the “SC 1.5:0.1” value is 0.333.

Turning to `CC(C)C[C@@H](C(=O)Nc1ccccn1)N1CC2=C(Oc3c(Cl)cccc3C2)C1=O` [Example 23, (S)-2-(5-Chloro-3-oxo-3,9-dihydro-1H-chromeno[2,3-c]pyrrol-2-yl)-4-methyl-pentanoic acid pyridin-2-ylamide], the “SC 1.5:0.1” value turned out to be 11.865. As for `COc1cccc2c1CC1=C(O2)C(=O)N([C@@H](CC2CCCCC2)C(=O)Nc2ccc(Cl)cn2)C1` [Example 8, (S)—N-(5-Chloro-pyridin-2-yl)-3-cyclohexyl-2-(8-methoxy-3-oxo-3,9-dihydro-1H-chromeno[2,3-c]pyrrol-2-yl)-propionamide], the “SC 1.5:0.1” value is listed as 0.292.

Turning to `CC(C)C[C@@H](C(=O)Nc1nccs1)N1CC2=C(Oc3c(Cl)cccc3C2)C1=O` [Example 24, (S)-2-(5-Chloro-3-oxo-3,9-dihydro-1H-chromeno[2,3-c]pyrrol-2-yl)-4-methyl-pentanoic acid thiazol-2-ylamide], the “SC 1.5:0.1” value is on record as 18.957. For `COC(=O)c1ccc(NC(=O)[C@H](CC(C)C)N2CC3=C(Oc4cccc(OC)c4C3)C2=O)nc1` [Example 12, 6-[(S)-2-(8-Methoxy-3-oxo-3,9-dihydro-1H-chromeno[2,3-c]pyrrol-2-yl)-4-methyl-pentanoylamino]-nicotinic acid methyl ester], the “SC 1.5:0.1” value was 0.906. For `O=C(Nc1nccs1)[C@H](CC1CCCCC1)N1CC2=C(Oc3cccc(Cl)c3C2)C1=O` [Example 2, (S)-2-(8-Chloro-3-oxo-3,9-dihydro-1H-chromeno[2,3-c]pyrrol-2-yl)-3-cyclohexyl-N-thiazol-2-yl-propionamide] the value was 4.051; for `COc1ccc(OC)c2c1CC1=C(O2)C(=O)N([C@@H](CC2CCCCC2)C(=O)Nc2ccccn2)C1` [Example 13, (S)-3-Cyclohexyl-2-(5,8-dimethoxy-3-oxo-3,9-dihydro-1H-chromeno[2,3-c]pyrrol-2-yl)-N-pyridin-2-yl-propionamide], 0.304. Take `COc1cccc2c1CC1=C(O2)C(=O)N([C@@H](CC2CCCCC2)C(=O)Nc2ccn(C[C@@H](O)CO)n2)C1` [Example 25, (S)-3-Cyclohexyl-N-[1-((R)-2,3-dihydroxy-propyl)-1H-pyrazol-3-yl]-2-(8-methoxy-3-oxo-3,9-dihydro-1H-chromeno[2,3-c]pyrrol-2-yl)-propionamide]: the “SC 1.5:0.1” value amounted to 0.507.
